Our source for the IC50 values is patent US10370343B2, “[6,6] Fused bicyclic HDAC8 inhibitors” (FORMA Therapeutics, Inc., priority 2015, dated 2019).

In this assay the target is T1, Recombinant N-terminal GST tag full-length human HDAC8 (Homo sapiens, UniProt Q9BY41).
T1 construct: Recombinant N-terminal GST tag full-length human HDAC8; purchased SignalChem H90-30G-1000; host or cells: baculovirus in Sf9 insect cells
T1 sequence (Q9BY41 1-377): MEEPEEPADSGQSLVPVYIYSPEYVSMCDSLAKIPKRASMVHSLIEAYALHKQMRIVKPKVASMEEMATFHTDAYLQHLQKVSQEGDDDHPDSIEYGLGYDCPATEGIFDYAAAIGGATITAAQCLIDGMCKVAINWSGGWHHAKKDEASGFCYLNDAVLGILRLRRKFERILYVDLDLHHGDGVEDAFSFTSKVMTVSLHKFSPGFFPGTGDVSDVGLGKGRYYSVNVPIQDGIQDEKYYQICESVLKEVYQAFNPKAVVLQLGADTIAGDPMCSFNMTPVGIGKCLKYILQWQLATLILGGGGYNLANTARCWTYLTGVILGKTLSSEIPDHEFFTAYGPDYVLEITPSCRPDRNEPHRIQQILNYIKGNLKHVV
The assay is described as follows: HDAC8 probe binding assay, time resolved fluorescence (TRF) format. The conditions noted are these: compounds grouped by IC50 range (Table 2). The method, then: The HDAC8 probe binding assay was performed using a time resolved fluorescence (TRF) assay format. Recombinant N-terminal GST tag full-length human HDAC8 was expressed and purified from baculovirus in Sf9 insect cells (SignalChem, #[…]-1000). […] Plates were incubated for 16 hours at room temperature before time resolved fluorescence was read on the Envision (Excitation at 340 nm, and Emission at 485 nm and 535 nm, Perkin Elmer). Data from HDAC8 Assays were reported as percent inhibition (inh) compared with control wells based on the following equation: % inh=1-((FLU-AveLow)/(AveHigh-AveLow)) where FLU=measured time resolved fluorescence. AveLow=average time resolved fluorescence of no enzyme control (n=32). AveHigh=average time resolved fluorescence of DMSO control (n=32). IC50 values were determined by curve fitting of the standard 4 parameter logistic fitting algorithm included in the Activity Base software package: IDBS XE Designer Model205. Data is fitted using the Levenburg Marquardt algorithm. Ranges of IC50 values for compounds of the invention are disclosed in Table 2: Table 2. provides the compounds arranged according to […] determined in a time resolved fluorescence (TRF) assay. The compounds are separated into four groups: […]

What is called IC50 is the midpoint of a concentration-inhibition curve.

Structures are written as SMILES.

As to `O=C(NO)c1ccc2c(c1)N(CC1CCc3ccccc3O1)C(=O)CO2` (racemic) [Compound I-184, (+/−)-4-(chroman-2-ylmethyl)-N-hydroxy-3-oxo-3,4-dihydro-2H-benzo[b][1,4]oxazine-6-carboxamide], the IC50 is 25 to 100 nM.

As to `O=C(NO)c1ccc2c(c1)N(CC1COc3ccccc3O1)C(=O)CO2` (racemic) [Compound I-185, (+/−)-4-((2,3-dihydrobenzo[b][1,4]dioxin-2-yl)methyl)-N-hydroxy-3-oxo-3,4-dihydro-2H-benzo[b][1,4]oxazine-6-carboxamide], the half-maximal inhibitory concentration (IC50) was ≤ 25 nM. As to `O=C(NO)c1ccc2c(c1)N(Cc1ccc(C(=O)N3CCCCC3)cc1)C(=O)CO2` [Compound I-150, N-hydroxy-3-oxo-4-(4-(piperidine-1-carbonyl)benzyl)-3,4-dihydro-2H-benzo[b][1,4]oxazine-6-carboxamide], the concentration for half-maximal inhibition (IC50) is 25 to 100 nM. Then `COc1ccc(CN2C(=O)COc3c(F)cc(C(=O)NO)cc32)cc1` [Compound I-163, 8-fluoro-N-hydroxy-4-(4-methoxybenzyl)-3-oxo-3,4-dihydro-2H-benzo[b][1,4]oxazine-6-carboxamide], with 25 to 100 nM. Take `O=C(NO)c1cc(F)c2c(c1)N(Cc1ccc(-n3cccn3)cc1)C(=O)CO2` [Compound I-164, 4-(4-(1H-pyrazol-1-yl)benzyl)-8-fluoro-N-hydroxy-3-oxo-3,4-dihydro-2H-benzo[b][1,4]oxazine-6-carboxamide]: the half-maximal inhibitory concentration (IC50) was in the range of 25 to 100 nM. As for `COc1ccc(CN2C(=O)OCc3ccc(C(=O)NO)cc32)cc1` [Compound I-165, N-hydroxy-1-(4-methoxybenzyl)-2-oxo-2,4-dihydro-1H-benzo[d][1,3]oxazine-7-carboxamide], the IC50 is ≤ 25 nM.

Regarding `O=C(NO)c1ccc2c(c1)N(Cc1ccc(-n3cccn3)cc1)C(=O)OC2` [Compound I-166, 1-(4-(1H-pyrazol-1-yl)benzyl)-N-hydroxy-2-oxo-1,4-dihydro-2H-benzo[d][1,3]oxazine-7-carboxamide], the IC50 is ≤ 25 nM. Turning to `COc1ccc(CN2CC(C(=O)N(C)C)Oc3ccc(C(=O)NO)cc32)cc1` (centres unmarked) [Compound I-169, N6-hydroxy-4-(4-methoxybenzyl)-N2,N2-dimethyl-3,4-dihydro-2H-benzo[b][1,4]oxazine-2,6-dicarboxamide], the IC50 lay in the range of 25 to 100 nM. Regarding `CNC(=O)C1CN(Cc2ccc(OC)cc2)c2cc(C(=O)NO)ccc2O1` (centres unmarked) [Compound I-170, N^6-hydroxy-4-(4-methoxybenzyl)-N^2-methyl-3,4-dihydro-2H, benzo[b][1,4]oxazine-2,6-dicarboxamide], the IC50 lay within 25 to 100 nM. Take `COc1ccc(CN2CC(C(=O)N3CCOCC3)Oc3ccc(C(=O)NO)cc32)cc1` (centres unmarked) [Compound I-171, N-hydroxy-4-(4-methoxybenzyl)-2-(morpholine-4-carbonyl)-3,4-dihydro-2H-benzo[b][1,4]oxazine-6-carboxamide]: the IC50 lay in the range of 25 to 100 nM. Consider `COc1ccc(CN2CC(C(=O)NC3CCOCC3)Oc3ccc(C(=O)NO)cc32)cc1` (centres unmarked) [Compound I-172, N6-hydroxy-4-(4-methoxybenzyl)-N2-(tetrahydro-2H-pyran-4-yl)-3,4-dihydro-2H-benzo[b][1,4]oxazine-2,6-dicarboxamide], for which the IC50 fell in the range of 25 to 100 nM.

As to `O=C(NO)c1ccc2c(c1)N(Cc1cnc3c(c1)OCCO3)C(=O)CO2` [Compound I-173, 4-((2,3-dihydro-[1,4]dioxino[2,3-b]pyridin-7-yl)methyl)-N-hydroxy-3-oxo-3,4-dihydro-2H-benzo[b][1,4]oxazine-6-carboxamide], the half-inhibitory concentration (IC50) lay in the range of 25 to 100 nM.

As to `O=C(NO)c1ccc2c(c1)N(Cc1ccc(-n3cncn3)cc1)C(=O)CO2` [Compound I-175, 4-(4-(1H-1,2,4-triazol-1-yl)benzyl)-N-hydroxy-3-oxo-3,4-dihydro-2H-benzo[b][1,4]oxazine-6-carboxamide], the IC50 is ≤ 25 nM. As for `O=C(NO)c1ccc2c(c1)N(Cc1ccc(N3CCCC3)cc1)C(=O)CO2` [Compound I-176, N-hydroxy-3-oxo-4-(4-(pyrrolidin-1-yl)benzyl)-3,4-dihydro-2H-benzo[b][1,4]oxazine-6-carboxamide], the half-inhibitory concentration (IC50) is ≤ 25 nM. For the compound `O=C(NO)c1ccc2c(c1)N(Cc1ccc(N3CCOCC3)cc1)C(=O)CO2` [Compound I-177, N-hydroxy-4-(4-morpholinobenzyl)-3-oxo-3,4-dihydro-2H-benzo[b][1,4]oxazine-6-carboxamide], the IC50 was 25 to 100 nM. With `O=C(NO)c1ccc2c(c1)N(Cc1cnc(-c3ccccc3)o1)C(=O)CO2` [Compound I-178, N-hydroxy-3-oxo-4-((2-phenyloxazol-5-yl)methyl)-3,4-dihydro-2H-benzo[b][1,4]oxazine-6-carboxamide], the half-maximal inhibitory concentration (IC50) is ≤ 25 nM. Consider `O=C(NO)c1ccc2c(c1)N(Cc1coc(-c3ccccc3)n1)C(=O)CO2` [Compound I-179, N-hydroxy-3-oxo-4-((2-phenyloxazol-4-yl)methyl)-3,4-dihydro-2H-benzo[b][1,4]oxazine-6-carboxamide], for which the concentration for half-maximal inhibition (IC50) was ≤ 25 nM.

As for `O=C(NO)c1ccc2c(c1)N(Cc1cnn(-c3ccccc3)n1)C(=O)CO2` [Compound I-180, N-hydroxy-3-oxo-4-((2-phenyl-2H-1,2,3-triazol-4-yl)methyl)-3,4-dihydro-2H-benzo[b][1,4]oxazine-6-carboxamide], the IC50 is ≤ 25 nM. On to `CC(C)(C)OC(=O)N1CCc2cc(CN3C(=O)COc4ccc(C(=O)NO)cc43)ccc2C1` [Compound I-181, tert-butyl 6-((6-(hydroxycarbamoyl)-3-oxo-2,3-dihydrobenzo[b][1,4]oxazin-4-yl)methyl)-3,4-dihydroisoquinoline-2(1H)-carboxylate], for which the IC50 was ≤ 25 nM. Turning to `CN1CCCc2cc(CN3C(=O)COc4ccc(C(=O)NO)cc43)ccc21` [Compound I-182, N-hydroxy-4-((1-methyl-1,2,3,4-tetrahydroquinolin-6-yl)methyl)-3-oxo-3,4-dihydro-2H-benzo[b][1,4]oxazine-6-carboxamide], the IC50 lay in the range of 25 to 100 nM. Then `CN1C(=O)CCc2cc(CN3C(=O)COc4ccc(C(=O)NO)cc43)ccc21` [Compound I-183, N-hydroxy-4-((1-methyl-2-oxo-1,2,3,4-tetrahydroquinolin-6-yl)methyl)-3-oxo-3,4-dihydro-2H-benzo[b][1,4]oxazine-6-carboxamide], with ≤ 25 nM; and `CC(=O)Nc1ccc(CN2C(=O)COc3ccc(C(=O)NO)cc32)cc1` [Compound I-186, 4-(4-acetamidobenzyl)-N-hydroxy-3-oxo-3,4-dihydro-2H-benzo[b][1,4]oxazine-6-carboxamide], with ≤ 25 nM; and `O=C(NO)c1ccc2c(c1)N(Cc1ccc(-n3ccnc3)cc1)C(=O)CO2` [Compound I-187, 4-(4-(1H-imidazol-1-yl)benzyl)-N-hydroxy-3-oxo-3,4-dihydro-2H-benzo[b][1,4]oxazine-6-carboxamide], with ≤ 25 nM. For the compound `O=C(NO)c1ccc2c(c1)N(Cc1ccc(N3CCCC3=O)cc1)C(=O)CO2` [Compound I-188, N-hydroxy-3-oxo-4-(4-(2-oxopyrrolidin-1-yl)benzyl)-3,4-dihydro-2H-benzo[b][1,4]oxazine-6-carboxamide], the IC50 lay within 25 to 100 nM.

Turning to `CN(C)S(=O)(=O)c1ccc(CN2C(=O)COc3ccc(C(=O)NO)cc32)cc1` [Compound I-189, 4-(4-(N,N-dimethylsulfamoyl)benzyl)-N-hydroxy-3-oxo-3,4-dihydro-2H-benzo[b][1,4]oxazine-6-carboxamide], the concentration for half-maximal inhibition (IC50) was ≤ 25 nM. As for `O=C(NO)c1ccc2c(c1)N(Cc1ccc(C(=O)N3CCOCC3)cc1)C(=O)CO2` [Compound I-190, N-hydroxy-4-(4-(morpholine-4-carbonyl)benzyl)-3-oxo-3,4-dihydro-2H-benzo[b][1,4]oxazine-6-carboxamide], the concentration for half-maximal inhibition (IC50) was 25 to 100 nM. With `O=C(NO)c1ccc2c(c1)N(Cc1ncc(-c3ccccc3)o1)C(=O)CO2` [Compound I-191, N-hydroxy-3-oxo-4-((5-phenyloxazol-2-yl)methyl)-3,4-dihydro-2H-benzo[b][1,4]oxazine-6-carboxamide], the IC50 was ≤ 25 nM. Regarding `O=C(NO)c1ccc2c(c1)N(Cc1ccc(C(=O)N3CCCC3)cc1)C(=O)CO2` [Compound I-192, N-hydroxy-3-oxo-4-(4-(pyrrolidine-1-carbonyl)benzyl)-3,4-dihydro-2H-benzo[b][1,4]oxazine-6-carboxamide], the IC50 was in the range of 25 to 100 nM. Then `O=C(NO)c1ccc2c(c1)N(Cc1ncn(-c3ccccc3)n1)C(=O)CO2` [Compound I-193, N-hydroxy-3-oxo-4-((1-phenyl-1H-1,2,4-triazol-3-yl)methyl)-3,4-dihydro-2H-benzo[b][1,4]oxazine-6-carboxamide], with 25 to 100 nM.
